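Five concentrations, 48 hours, 96-well plates. GI50 marks 50% less growth.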 The source made the active and inactive calls. Cut-off read from the data, not from the text of the source: active = GI50 up to about 1.1 µM and inactive = higher.
Columns and labels:
Test in all cases: NCI tumour cell line growth inhibition, 48 h
[1] = tested on: EKVX
[2] = tested on: HCT-116
[3] = tested on: HOP-92
[4] = tested on: Hs-578T
[5] = tested on: M14
[6] = tested on: MCF7
[7] = tested on: MDA-MB-435
[8] = tested on: NCI-H460
[9] = tested on: NCI-H522
[10] = tested on: OVCAR-5
[11] = tested on: PC-3
[12] = tested on: RXF 393
[13] = tested on: SF-268
[14] = tested on: SF-539
[15] = tested on: SK-MEL-5
[16] = tested on: SK-OV-3
[17] = tested on: SN12C
[18] = tested on: SNB-75
[19] = tested on: SR
[20] = tested on: U-251

| SMILES | GI50 [1] | GI50 [2] | GI50 [3] | GI50 [4] | GI50 [5] | GI50 [6] | GI50 [7] | GI50 [8] | GI50 [9] | GI50 [10] | GI50 [11] | GI50 [12] | GI50 [13] | GI50 [14] | GI50 [15] | GI50 [16] | GI50 [17] | GI50 [18] | GI50 [19] | GI50 [20] |
| --- | --- | --- | --- | --- | --- | --- | --- | --- | --- | --- | --- | --- | --- | --- | --- | --- | --- | --- | --- | --- |
| c1ccc(C2C(=P(c3ccccc3)(c3ccccc3)c3ccccc3)P=PC2[P+](c2ccccc2)(c2ccccc2)c2ccccc2)cc1.c1ccc([B-](c2ccccc2)(c2ccccc2)c2ccccc2)cc1 (stereo not given) | 4.79 µM (inactive) | 0.0841 µM (active) | 0.555 µM (active) | 0.679 µM (active) | 0.286 µM (active) | 0.543 µM (active) | 0.171 µM (active) | 0.447 µM (active) | 0.424 µM (active) | 2.97 µM (inactive) | 0.471 µM (active) | 0.285 µM (active) | 0.695 µM (active) | 0.656 µM (active) | 0.191 µM (active) | 1.85 µM (inactive) | 0.507 µM (active) | 0.582 µM (active) | 0.966 µM (active) | 0.176 µM (active) |
| NS(=O)(=O)c1ccc(NC(NC(=O)C(C(F)(F)F)C(F)(F)F)(C(F)(F)F)C(F)(F)F)cc1 | > 100 µM (inactive) | > 100 µM (inactive) | > 100 µM (inactive) | > 100 µM (inactive) | > 100 µM (inactive) | > 100 µM (inactive) | > 100 µM (inactive) | > 100 µM (inactive) | > 100 µM (inactive) | > 100 µM (inactive) | > 100 µM (inactive) | > 100 µM (inactive) | > 100 µM (inactive) | > 100 µM (inactive) | > 100 µM (inactive) | > 100 µM (inactive) | > 100 µM (inactive) | > 100 µM (inactive) | > 100 µM (inactive) | > 100 µM (inactive) |
| O=C1c2cc([N+](=O)[O-])sc2C(=O)c2cc([N+](=O)[O-])sc21 | 3.13 µM (inactive) | 1.67 µM (inactive) | 1.85 µM (inactive) | 9.18 µM (inactive) | 3.78 µM (inactive) | 2.58 µM (inactive) | 2.1 µM (inactive) | 19.4 µM (inactive) | 1.44 µM (inactive) | 7.11 µM (inactive) | 4.6 µM (inactive) | 6.03 µM (inactive) | 3.63 µM (inactive) | 3.2 µM (inactive) | 2.51 µM (inactive) | 10.1 µM (inactive) | 2.8 µM (inactive) | 12.6 µM (inactive) | 0.268 µM (active) | 1.79 µM (inactive) |
| Cc1cccc2c(N)c3cccc(C(=O)NCC[N+](C)(C)Cc4ccccc4[N+](=O)[O-])c3nc12 | 31.5 µM (inactive) | 5.92 µM (inactive) | 10 µM (inactive) | 6.35 µM (inactive) | 9.62 µM (inactive) | 4.35 µM (inactive) | 21.1 µM (inactive) | 2.24 µM (inactive) | 4.94 µM (inactive) | 13 µM (inactive) | 7.14 µM (inactive) | 9.64 µM (inactive) | 5.12 µM (inactive) | 7.94 µM (inactive) | 7.57 µM (inactive) | 12.6 µM (inactive) | 2.11 µM (inactive) | 1.64 µM (inactive) | 0.258 µM (active) | 5 µM (inactive) |
| COC(=O)CNC(=O)C(Cc1ccccc1)NC(=O)c1ccc(-c2ccc(Cl)cc2Cl)o1 (stereo not given) | 20.3 µM (inactive) | 14.8 µM (inactive) | 12.4 µM (inactive) | 15.3 µM (inactive) | 30.9 µM (inactive) | 17.8 µM (inactive) | 26.9 µM (inactive) | 15.2 µM (inactive) | 13.4 µM (inactive) | 28.4 µM (inactive) | 21.1 µM (inactive) | 18.4 µM (inactive) | 19.8 µM (inactive) | 36.3 µM (inactive) | 31.6 µM (inactive) | 24.9 µM (inactive) | 26.3 µM (inactive) | 30.9 µM (inactive) | 14.9 µM (inactive) | 28.5 µM (inactive) |
| O=C1c2ccccc2C2=Cc3ccccc3C(O)N12 (stereo not given) | > 100 µM (inactive) | > 100 µM (inactive) | 41.3 µM (inactive) | 68.4 µM (inactive) | > 100 µM (inactive) | > 100 µM (inactive) | > 100 µM (inactive) | > 100 µM (inactive) | 21.7 µM (inactive) | > 100 µM (inactive) | > 100 µM (inactive) | 26.2 µM (inactive) | > 100 µM (inactive) | > 100 µM (inactive) | > 100 µM (inactive) | > 100 µM (inactive) | > 100 µM (inactive) | 92.5 µM (inactive) | 25.8 µM (inactive) | > 100 µM (inactive) |
| CCN1C(=O)/C(=C2\SC(c3ccccc3)(c3ccccc3)c3ccccc32)SC1=S | 75.9 µM (inactive) | 47 µM (inactive) | 30.5 µM (inactive) | 32.2 µM (inactive) | 93.1 µM (inactive) | > 100 µM (inactive) | > 100 µM (inactive) | > 100 µM (inactive) | > 100 µM (inactive) | > 100 µM (inactive) | 74.5 µM (inactive) | > 100 µM (inactive) | 36.3 µM (inactive) | 46.7 µM (inactive) | > 100 µM (inactive) | > 100 µM (inactive) | > 100 µM (inactive) | 53.1 µM (inactive) | 18.6 µM (inactive) | 44.7 µM (inactive) |
| O=C(Nc1ccc(Cl)c(C(F)(F)F)c1)C(=O)c1c(O)c2ccccc2oc1=O | > 100 µM (inactive) | > 100 µM (inactive) | > 100 µM (inactive) | > 100 µM (inactive) | > 100 µM (inactive) | > 100 µM (inactive) | > 100 µM (inactive) | > 100 µM (inactive) | > 100 µM (inactive) | > 100 µM (inactive) | > 100 µM (inactive) | > 100 µM (inactive) | > 100 µM (inactive) | > 100 µM (inactive) | > 100 µM (inactive) | > 100 µM (inactive) | > 100 µM (inactive) | > 100 µM (inactive) | > 100 µM (inactive) | > 100 µM (inactive) |
| CC(=O)OC[C@]1(C(=O)C(O)c2ccoc2)[C@H](C)CC[C@@]23COC(=O)C2=CCC[C@@H]31 (stereo not given in full) | > 10 µM (inactive) | > 10 µM (inactive) | > 10 µM (inactive) | > 10 µM (inactive) | > 10 µM (inactive) | > 10 µM (inactive) | > 10 µM (inactive) | > 10 µM (inactive) | > 10 µM (inactive) | > 10 µM (inactive) | > 10 µM (inactive) | > 10 µM (inactive) | > 10 µM (inactive) | > 10 µM (inactive) | > 10 µM (inactive) | > 10 µM (inactive) | > 10 µM (inactive) | > 10 µM (inactive) | > 10 µM (inactive) | > 10 µM (inactive) |
| CC[C@@]1(O)C(=O)OCc2c1cc1n(c2=O)Cc2c-1nc1ccccc1c2/C=N\NC(=O)C(N)=O | 19.5 µM (inactive) | 0.161 µM (active) | 0.222 µM (active) | 56.9 µM (inactive) | 0.208 µM (active) | 0.0189 µM (active) | 2.32 µM (inactive) | 0.0559 µM (active) | 0.333 µM (active) | 25.8 µM (inactive) | 4.36 µM (inactive) | 3.04 µM (inactive) | < 0.0292 µM (active) | 0.0217 µM (active) | 0.222 µM (active) | 0.467 µM (active) | 0.172 µM (active) | 0.558 µM (active) | < 0.01 µM (active) | 0.0398 µM (active) |
| C1COCCN1.S=C(S)N1CCOCC1 | > 100 µM (inactive) | 2.12 µM (inactive) | 30 µM (inactive) | > 100 µM (inactive) | 12.8 µM (inactive) | 29.4 µM (inactive) | > 100 µM (inactive) | 5.87 µM (inactive) | 0.973 µM (active) | 12.5 µM (inactive) | > 100 µM (inactive) | 2.43 µM (inactive) | 9.68 µM (inactive) | 43.1 µM (inactive) | 7.59 µM (inactive) | 5.4 µM (inactive) | > 100 µM (inactive) | 7.08 µM (inactive) | 1.04 µM (active) | 4.98 µM (inactive) |
| C/C=C/[C@@H](C(=O)OC)N1C(=O)c2ccccc2[C@H]1O | > 100 µM (inactive) | > 100 µM (inactive) | > 100 µM (inactive) | > 100 µM (inactive) | > 100 µM (inactive) | > 100 µM (inactive) | > 100 µM (inactive) | > 100 µM (inactive) | > 100 µM (inactive) | > 100 µM (inactive) | > 100 µM (inactive) | > 100 µM (inactive) | > 100 µM (inactive) | > 100 µM (inactive) | > 100 µM (inactive) | > 100 µM (inactive) | > 100 µM (inactive) | > 100 µM (inactive) | > 100 µM (inactive) | > 100 µM (inactive) |
| CSc1c(C#N)c(N)nc2c(/N=N\c3ccc(Cl)cc3)c(N)nn12 | 0.34 µM (active) | 7.87 µM (inactive) | 3.29 µM (inactive) | 1.23 µM (inactive) | 18.6 µM (inactive) | 2.17 µM (inactive) | 9.89 µM (inactive) | 11.1 µM (inactive) | 6.19 µM (inactive) | 17.3 µM (inactive) | 2.7 µM (inactive) | 2.55 µM (inactive) | 2.39 µM (inactive) | 5.85 µM (inactive) | 14.6 µM (inactive) | 33 µM (inactive) | 3.17 µM (inactive) | 7.41 µM (inactive) | 2.55 µM (inactive) | 4.33 µM (inactive) |
| COc1ccc(NC2Oc3cc4c(cc3C(c3cccc(OC)c3OC)C2C)OCO4)cc1 (stereo not given) | 18.5 µM (inactive) | 3.83 µM (inactive) | 3.32 µM (inactive) | 7.96 µM (inactive) | 6.04 µM (inactive) | 8.81 µM (inactive) | 10 µM (inactive) | 5.86 µM (inactive) | 6.24 µM (inactive) | 19.2 µM (inactive) | 3.62 µM (inactive) | 3.72 µM (inactive) | 10.1 µM (inactive) | 17.7 µM (inactive) | 13.6 µM (inactive) | 70 µM (inactive) | 6.19 µM (inactive) | 5.06 µM (inactive) | 2.04 µM (inactive) | 4.01 µM (inactive) |
